The source of these data is patent publication US12162848B2, “Inhibitors of protein tyrosine phosphatase, compositions, and methods of use” (BRISTOL-MYERS SQUIBB COMPANY, priority 2022, dated 2024).

One test concerns the target T1, PTPN2 enzyme (Homo sapiens, UniProt P17706).
T1 sequence (P17706 1-415): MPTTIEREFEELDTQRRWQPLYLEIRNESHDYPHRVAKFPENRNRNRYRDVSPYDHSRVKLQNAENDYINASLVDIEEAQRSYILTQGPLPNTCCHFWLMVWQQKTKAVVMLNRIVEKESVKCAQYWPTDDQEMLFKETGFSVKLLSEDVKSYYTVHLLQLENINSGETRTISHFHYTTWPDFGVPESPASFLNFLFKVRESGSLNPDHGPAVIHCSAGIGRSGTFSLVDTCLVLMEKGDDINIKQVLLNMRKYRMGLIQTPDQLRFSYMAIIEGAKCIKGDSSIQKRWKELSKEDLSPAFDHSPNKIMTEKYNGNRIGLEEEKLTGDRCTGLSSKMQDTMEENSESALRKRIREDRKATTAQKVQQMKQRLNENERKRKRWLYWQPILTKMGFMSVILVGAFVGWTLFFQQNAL
The experiment in a line: PhosphoSens PTPN2 biochemical assay. The settings on record: substrate AQT0264 20 μM, room temperature; read-out: PTPN2 BCHEM IC50. The method in brief: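 PhosphoSens fluorescence format with 20 μM final AQT0264 substrate and […] in 50 mM HEPES pH 7.5, 500 μM EGTA, […], 0.01% Brij-35, 1% glycerol, 1 mM DTT, 0.2 mg/mL BSA. Compounds in 3-fold dilution series; progress curves read (ex 360/em 480 nm) every 71 s for 1 h at room temperature.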

Test [1] relates to phosphorylated STAT1 protein levels in B16-F10 cells. The test is described as follows: Phospho-STAT1 (Tyr701) HTRF assay in IFN-gamma treated B16-F10 cells. The format is cell-based. The settings on record: mouse IFN-gamma 100 ng/mL, 1 hour, read-out: pSTAT1 HTRF B16 EC50. The essentials:
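Mouse B16-F10 cells, 10,000/well, pretreated 1 h with compound (0.15% DMSO), then stimulated with mouse IFN-gamma at 100 ng/mL final for 1 h at 37 C. Phospho-STAT1 (Tyr701) measured by HTRF.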
For orientation: Time-resolved FRET reads energy transfer from a long-lived donor to a nearby acceptor.

The test system of a further test is B16-F10 cells. The experiment in a line: Cell proliferation assay (CellTiter-Glo) in IFN-gamma treated B16-F10 cells. The format is cell-based. The note with it: 120 h, mouse IFN-gamma 10 ng/mL, read-out: PTPN2 Prolif 5d B16F10 EC50. The procedure: B16-F10 cells (ATCC, Manassas, VA, #CRL-6475) were cultured in DMEM growth medium (ThermoFisher Scientific, Waltham, MA, #11995-040) supplemented with 10% heat inactivated FBS (ThermoFisher Scientific, #16140-071) and 1% pen/strep (ThermoFisher Scientific, #15140-122). The cells were seeded into two white opaque 384-well tissue culture treated microplates (PerkinElmer, Waltham, MA, #6007688) at a density of 100 cells/well in 20 uL total volume and incubated overnight at 37 C and 5% CO2. 30 nL of compounds dissolved in DMSO were then transferred from a source plate into target wells with the Echo650 acoustic liquid handler (Beckman Coulter, Indianapolis, IN). Negative control wells received 30 nL of DMSO only (0.15% final concentration). Plates were returned to the incubator for 1 hour and then cells treated with either 5 uL of growth medium or 5 uL of growth medium containing 50 ng/mL of recombinant mouse IFN-gamma protein (R&D Systems, Minneapolis, MN, #485-MI/CF, 10 ng/mL final concentration) using the Assist automated pipetting platform (INTEGRA Biosciences, Hudson, NH). Plates were incubated at 37 C for 4 days and cell proliferation assayed with the CellTiter-Glo reagent (Promega, Madison, WI, #G7573, 25 uL per well). […] Off-target compound mediated cytotoxicity was identified by checking for growth inhibition in the absence of IFNg.
On the technique in general: In ATP-based viability assays light output follows the ATP content of the culture.

A word on the IC50: it is the point on the concentration scale where inhibition reaches its midpoint. By EC50 is commonly meant the concentration at which the effect is half-maximal. On to `O=C1CN(c2c(O)cc(-c3cnc4ccccc4c3)cc2F)S(=O)(=O)N1` [EXAMPLE 24, 5-[2-fluoro-6-hydroxy-4-(3-quinolyl)phenyl]-1,1-dioxo-1,2,5-thiadiazolidin-3-one], for which the IC50 at PTPN2 enzyme was determined as 190 nM. Moreover, the EC50 (in test [1]; with B16-F10 cells) was ≥ 15000 nM in each case.

For `O=C1CN(c2c(O)cc(-c3ccc(O)nc3)cc2F)S(=O)(=O)N1` [EXAMPLE 26, 5-[2-fluoro-6-hydroxy-4-(6-hydroxy-3-pyridyl)phenyl]-1,1-dioxo-1,2,5-thiadiazolidin-3-one], the IC50 at PTPN2 enzyme worked out at 10 nM. Moreover, the EC50 in test [1] is 2180 nM; in the test on B16-F10 cells it was 3110 nM.

For `CN1CCN(c2ccc(-c3cc(O)c(N4CC(=O)NS4(=O)=O)c(F)c3)cn2)CC1` [EXAMPLE 27, 5-[2-fluoro-6-hydroxy-4-[6-(4-methylpiperazin-1-yl)-3-pyridyl]phenyl]-1,1-dioxo-1,2,5-thiadiazolidin-3-one], the IC50 on PTPN2 enzyme turned out to be 457 nM. Besides, the concentration giving a half-maximal response (EC50) (in test [1]; in the test on B16-F10 cells) was ≥ 15000 nM each time.

In the case of `COc1cncc(-c2cc(O)c(N3CC(=O)NS3(=O)=O)c(F)c2)c1` [EXAMPLE 28, 5-[2-fluoro-6-hydroxy-4-(5-methoxy-3-pyridyl)phenyl]-1,1-dioxo-1,2,5-thiadiazolidin-3-one], at PTPN2 enzyme, the IC50 was 89 nM. For the same molecule, the EC50 was ≥ 15000 nM in test [1] and 7820 nM in the test on B16-F10 cells.

Consider `CN(C)c1ccc(-c2cc(O)c(N3CC(=O)NS3(=O)=O)c(F)c2)cn1` [EXAMPLE 29, 5-[4-[6-(dimethylamino)-3-pyridyl]-2-fluoro-6-hydroxy-phenyl]-1,1-dioxo-1,2,5-thiadiazolidin-3-one], for which the half-inhibitory concentration (IC50) at PTPN2 enzyme amounted to 90 nM. Further, the 50% effective concentration (EC50) (in test [1]; in the test with B16-F10 cells) was ≥ 15000 nM each time.

Regarding `O=C1CN(c2c(O)cc(-c3ccc(-c4ccccc4)nc3)cc2F)S(=O)(=O)N1` [EXAMPLE 30, 5-[2-fluoro-6-hydroxy-4-(6-phenyl-3-pyridyl)phenyl]-1,1-dioxo-1,2,5-thiadiazolidin-3-one], at PTPN2 enzyme, the IC50 amounted to 148 nM. In addition, the 50% effective concentration (EC50) (in test [1]; in the test with B16-F10 cells) was ≥ 15000 nM throughout.

Regarding `CN1CCN(Cc2cc(O)c(N3CC(=O)NS3(=O)=O)c(F)c2)CC1` [EXAMPLE 31, 5-(2-fluoro-6-hydroxy-4-((4-methylpiperazin-1-yl)methyl)phenyl)-1,2,5-thiadiazolidin-3-one 1,1-dioxide], the half-maximal inhibitory concentration (IC50) at PTPN2 enzyme worked out at 104 nM. In addition, the EC50 stood at 2410 nM in test [1] and 1310 nM in the test with B16-F10 cells.

As to `CC(C)CCN1CCN(Cc2cc(O)c(N3CC(=O)NS3(=O)=O)c(F)c2)CC1` [EXAMPLE 32, 5-(2-fluoro-6-hydroxy-4-((4-isopentylpiperazin-1-yl)methyl)phenyl)-1,2,5-thiadiazolidin-3-one 1,1-dioxide], the IC50 on PTPN2 enzyme came out at 65 nM. The concentration for a half-maximal effect (EC50) (in test [1]; in the test with B16-F10 cells) was ≥ 15000 nM each time.

As for `CN(C)C1CCN(Cc2cc(O)c(N3CC(=O)NS3(=O)=O)c(F)c2)CC1` [EXAMPLE 33, 5-(4-((4-(dimethylamino)piperidin-1-yl)methyl)-2-fluoro-6-hydroxyphenyl)-1,2,5-thiadiazolidin-3-one 1,1-dioxide], the IC50 on PTPN2 enzyme turned out to be 94 nM. For the same molecule, the EC50 (in test [1]; in the test with B16-F10 cells) was ≥ 15000 nM throughout.

Regarding `O=C1CN(c2c(O)cc(CNC3CCCCC3)cc2F)S(=O)(=O)N1` [EXAMPLE 34, 5-[4-[(cyclohexylamino)methyl]-2-fluoro-6-hydroxy-phenyl]-1,1-dioxo-1,2,5-thiadiazolidin-3-one], the IC50 on PTPN2 enzyme amounted to 90 nM. For the same molecule, the 50% effective concentration (EC50) in test [1] is 1740 nM; with B16-F10 cells, 1720 nM.

Take `O=C1CN(c2c(O)cc(CNC3CCOCC3)cc2F)S(=O)(=O)N1` [EXAMPLE 35, 5-[2-fluoro-6-hydroxy-4-[(tetrahydropyran-4-ylamino)methyl]phenyl]-1,1-dioxo-1,2,5-thiadiazolidin-3-one]: on PTPN2 enzyme, the IC50 amounted to 1560 nM. The 50% effective concentration (EC50) (in test [1]; with B16-F10 cells) was ≥ 15000 nM throughout.

For the molecule `CC(C)CC(=O)N1CCN(Cc2cc(O)c(N3CC(=O)NS3(=O)=O)c(F)c2)CC1` [EXAMPLE 36, 5-(2-fluoro-6-hydroxy-4-((4-(3-methylbutanoyl)piperazin-1-yl)methyl)phenyl)-1,2,5-thiadiazolidin-3-one 1,1-dioxide], at PTPN2 enzyme, the IC50 turned out to be 79 nM. For the same molecule, the EC50 (in test [1]; in the test on B16-F10 cells) was ≥ 15000 nM throughout.

Turning to `CC1(C)CCC(NCc2cc(O)c(N3CC(=O)NS3(=O)=O)c(F)c2)CC1` [EXAMPLE 37, 5-(4-(((4,4-dimethylcyclohexyl)amino)methyl)-2-fluoro-6-hydroxyphenyl)-1,2,5-thiadiazolidin-3-one 1,1-dioxide], the IC50 on PTPN2 enzyme turned out to be 35 nM. Also, the EC50 in test [1] worked out at 1340 nM; with B16-F10 cells it was 812 nM.

In the case of `O=C1CN(c2c(O)cc(CNC3CCNCC3)cc2F)S(=O)(=O)N1` [EXAMPLE 39, 5-(2-fluoro-6-hydroxy-4-((piperidin-4-ylamino)methyl)phenyl)-1,2,5-thiadiazolidin-3-one 1,1-dioxide], the IC50 on PTPN2 enzyme worked out at 86 nM. Also, the EC50 (in test [1]; with B16-F10 cells) was ≥ 15000 nM in each case.

Turning to `CCN1CCC(NCc2cc(O)c(N3CC(=O)NS3(=O)=O)c(F)c2)CC1` [EXAMPLE 40, 5-(4-(((1-ethylpiperidin-4-yl)amino)methyl)-2-fluoro-6-hydroxyphenyl)-1,2,5-thiadiazolidin-3-one 1,1-dioxide], the concentration for half-maximal inhibition (IC50) on PTPN2 enzyme was found to be 131 nM. Further, the EC50 in test [1] is 2340 nM; in the test with B16-F10 cells, 3260 nM.

Take `O=C1CN(c2c(O)cc(CN3CCOCC3)cc2F)S(=O)(=O)N1` [EXAMPLE 41, 5-(2-fluoro-6-hydroxy-4-(morpholinomethyl)phenyl)-1,2,5-thiadiazolidin-3-one 1,1-dioxide]: the 50% inhibitory concentration (IC50) at PTPN2 enzyme was 70 nM. Further, the half-maximal effective concentration (EC50) was 3380 nM in test [1] and 3560 nM in the test on B16-F10 cells.

For the molecule `O=C1CN(c2c(O)cc(CN3CCC(F)CC3)cc2F)S(=O)(=O)N1` [EXAMPLE 42, 5-(2-fluoro-4-((4-fluoropiperidin-1-yl)methyl)-6-hydroxyphenyl)-1,2,5-thiadiazolidin-3-one 1,1-dioxide], at PTPN2 enzyme, the 50% inhibitory concentration (IC50) was determined as 60 nM. Moreover, the values for the EC50 (in test [1]; in the test on B16-F10 cells) were 2570 nM and 4720 nM, respectively.

Consider `CN(Cc1cc(O)c(N2CC(=O)NS2(=O)=O)c(F)c1)C1CCCCC1` [EXAMPLE 43, 5-(4-((cyclohexyl(methyl)amino)methyl)-2-fluoro-6-hydroxyphenyl)-1,2,5-thiadiazolidin-3-one 1,1-dioxide], for which the concentration for half-maximal inhibition (IC50) on PTPN2 enzyme amounted to 239 nM. The concentration for a half-maximal effect (EC50) stood at 4270 nM in test [1] and 4350 nM with B16-F10 cells.

On to `COCCN1CCN(Cc2cc(O)c(N3CC(=O)NS3(=O)=O)c(F)c2)CC1` [EXAMPLE 44, 5-(2-fluoro-6-hydroxy-4-((4-(2-methoxyethyl)piperazin-1-yl)methyl)phenyl)-1,2,5-thiadiazolidin-3-one 1,1-dioxide], for which the IC50 on PTPN2 enzyme is 131 nM. The EC50 (in test [1]; in the test with B16-F10 cells) was ≥ 15000 nM throughout.

For `CC1(C)CCC[C@@H](NCc2cc(O)c(N3CC(=O)NS3(=O)=O)c(F)c2)C1` [EXAMPLE 51, 5-[4-[[[(1R)-3,3-dimethylcyclohexyl]amino]methyl]-2-fluoro-6-hydroxy-phenyl]-1,1-dioxo-1,2,5-thiadiazolidin-3-one], the IC50 on PTPN2 enzyme was found to be 35 nM. The results for the concentration giving a half-maximal response (EC50) (in test [1]; in the test on B16-F10 cells) were 1150 nM and 656 nM, respectively.
